According to article PMC7826463, “Pamiparib dose escalation in Chinese patients with non‐mucinous high‐grade ovarian cancer or advanced triple‐negative breast cancer” (Cancer Medicine, 2020):
Where “and” joins values, the source holds several entries; their conditions need not be identical. Identical values can stand only once.

How the values were obtained:
[1] = tested on: patients with advanced solid tumors; conditions: cited from earlier work
[2] = tested on: triple-negative breast cancer (TNBC); assay: Antitumor activity per RECIST v1.1 (best overall response, ORR, CBR, PFS) in patients with TNBC; assay type: in vivo, human
Protocol: Secondary objectives were assessment of PK parameters and antitumor activity. Blood samples for the PK analysis were collected at Cycle 1 on Days 1, 2, and 3. Pharmacokinetic sampling was performed at Cycle 1 on Day 1 (predose and at 0.5, 1, 2, 4, 6, 9, and 12 hours postdose), Day 2, Day 3, and Day 10 (predose and at 0.5, 1, 2, 4, 6, 9, and 12 hours postdose); then at Cycles 2 and 3 on Day 1 (predose and at 2 hours postdose). […] Tumor assessments were performed by the investigators at screening, every 6 weeks after the first dose of pamiparib in the 1st year, and every 12 weeks thereafter until progression, per RECIST v1.1. Patients completed the study at the time of their safety follow‐up visit; therefore, radiological assessment of disease progression was not performed after the safety follow‐up visit. Approximately 14 to 18 evaluable patients were expected to enroll in the phase 1 part of the study. The safety population included all patients who received ≥1 dose of pamiparib. The PK population included all patients for whom valid pamiparib PK parameters could be estimated. Antitumor activity per RECIST v1.1 was assessed in all evaluable patients. […] The population evaluable for CA‐125 response included patients in the safety population with baseline CA‐125 ≥2 x upper limit of normal. Descriptive statistics were used to summarize all study data. Continuous variables included the number of non‐missing observations, mean, standard deviation, median, minimum, and maximum. Categorical variables were summarized by their frequency and percentage. Progression‐free survival was estimated using the Kaplan–Meier method and the corresponding 95% confidence interval (CI) was constructed using Greenwood's formula. Standard PK parameters (i.e., area under the plasma concentration‐time curve [AUC] from time of drug administration; maximum plasma concentration [Cmax]; time to Cmax; elimination half‐life [t1/2]; apparent clearance; and apparent volume of distribution during terminal phase) were estimated and derived using standard non‐compartmental methods.

PARP1/2 = conditions: cited from earlier work
[3] = TNBC (n = 5), RECIST efficacy-evaluable
[4] = TNBC (n = 5), RECIST efficacy-evaluable, 20-60 mg BID
[5] = TNBC (n=6), Kaplan-Meier, NE, not estimable

Question: For `C[C@]12CCCN1CC1=NNC(=O)c3cc(F)cc4[nH]c2c1c34` [pamiparib, Pamiparib], which “Recommended phase 2 dose (RP2D)” value ([1]; FIH study NCT02361723, PO) is on record?
Answer: 60 mg BID

Question: What about the “Linearity of pamiparib exposure” value ([1]; FIH study NCT02361723) of the same compound?
Answer: linear up to 80 mg BID

Question: What about the “Maximum tolerated dose (MTD)” value ([1]; FIH study NCT02361723) of the same compound?
Answer: 80 mg BID

Question: And the “Clinical benefit rate (CR+PR+SD ≥24 weeks)” value [2, 3]?
Answer: 0 % (95% CI)

Question: What about the “Disease control rate (CR+PR+SD)” value [2, 3] of the same compound?
Answer: 0 % (95% CI)

Question: And the “Objective response rate (CR+PR)” value [2, 3]?
Answer: 0 % (95% CI)

Question: And the “Best overall response: Complete response” value [2, 4]?
Answer: 0 n (%)

Question: What about the “Best overall response: Partial response” value [2, 4] of the same compound?
Answer: 0 n (%)

Question: And the “Best overall response: Stable disease” value [2, 4]?
Answer: 0 n (%)

Question: What about the “Median PFS (95% CI)” value ([2]; TNBC (n=6), Kaplan-Meier) of the same compound?
Answer: 1.5 (1.45–1.61) months

Question: What about the “Event-free rate at 3 months (95% CI)” value [2, 5] of the same compound?
Answer: 0 (NE–NE) %

Question: What about the “Event-free rate at 6 months (95% CI)” value [2, 5] of the same compound?
Answer: 0 (NE–NE) %

Question: And the “Event-free rate at 9 months (95% CI)” value [2, 5]?
Answer: 0 (NE–NE) %

Question: And the “PFS Events” value ([2]; TNBC (n=6), safety population)?
Answer: 5 (83.3) n (%)

Question: What about the “PFS events: Disease progression” value ([2]; TNBC (n=6), safety population) of the same compound?
Answer: 5 n (%) and 5 (83.3) n (%)

Question: And the “Potency relative to olaparib (fold more potent)” value (PARP1/2)?
Answer: 10 fold
